In paper PMC11079024, “Identification of a family of species-selective complex I inhibitors as potential anthelmintics” (Nature Communications, 2024):
Read-outs that look alike come from different tables or passages of the source.

Tests used:
[1] = molecular target: C. elegans (N2) complex I (NADH:ubiquinone oxidoreductase) (Caenorhabditis elegans, UniProt P24887+Q93873+Q94360); assay: biochemical; assay type: biochemical
In short: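 Mitochondria from liquid-cultured adults were freeze-thawed thrice before the 15-min DCIP-coupled NADH oxidation read.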

[2] = in vitro; conditions: human
[3] = system: L1 wild-type C. elegans

C. elegans (N2) complex I (NADH:ubiquinone oxidoreductase), sequence (Q94360 17-199): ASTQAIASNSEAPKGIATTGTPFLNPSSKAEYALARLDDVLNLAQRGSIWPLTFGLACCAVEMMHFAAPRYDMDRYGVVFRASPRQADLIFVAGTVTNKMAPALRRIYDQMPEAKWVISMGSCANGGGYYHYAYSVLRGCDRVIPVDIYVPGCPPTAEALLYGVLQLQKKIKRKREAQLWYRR
C. elegans (N2) complex I (NADH:ubiquinone oxidoreductase), sequence (P24887 whole entry): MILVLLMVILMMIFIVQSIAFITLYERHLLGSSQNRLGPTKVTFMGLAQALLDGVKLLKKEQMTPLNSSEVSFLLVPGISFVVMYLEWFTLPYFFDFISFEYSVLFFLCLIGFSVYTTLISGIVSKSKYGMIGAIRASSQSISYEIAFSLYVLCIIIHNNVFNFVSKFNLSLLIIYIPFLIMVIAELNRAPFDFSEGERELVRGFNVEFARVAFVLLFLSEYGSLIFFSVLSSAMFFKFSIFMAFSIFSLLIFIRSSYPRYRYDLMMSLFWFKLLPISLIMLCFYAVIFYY
C. elegans (N2) complex I (NADH:ubiquinone oxidoreductase), sequence (Q93873 31-482): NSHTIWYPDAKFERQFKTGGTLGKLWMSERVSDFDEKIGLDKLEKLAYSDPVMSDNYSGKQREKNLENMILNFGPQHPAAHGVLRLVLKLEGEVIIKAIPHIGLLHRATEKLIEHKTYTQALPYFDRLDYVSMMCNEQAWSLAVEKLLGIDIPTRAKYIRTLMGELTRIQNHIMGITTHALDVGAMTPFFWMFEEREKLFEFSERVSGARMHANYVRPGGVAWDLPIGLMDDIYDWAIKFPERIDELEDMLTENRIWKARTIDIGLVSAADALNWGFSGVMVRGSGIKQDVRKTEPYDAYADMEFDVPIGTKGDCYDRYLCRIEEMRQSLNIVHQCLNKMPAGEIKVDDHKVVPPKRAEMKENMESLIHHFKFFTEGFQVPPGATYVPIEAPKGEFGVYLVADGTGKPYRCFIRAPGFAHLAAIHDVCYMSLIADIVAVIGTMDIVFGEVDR

Cc1nc2ccccc2n1CCOc1ccccc1 [Compound 5550112] gave an activity at 0.0001 µM ([1]; Dose 0.0001 µM, read-out: C. elegans mitochondrial complex I activity) of 88.8%, an activity at 0.0005 µM ([1]; Dose 0.0005 µM, read-out: C. elegans mitochondrial complex I activity) of 84.9% and an activity at 0.001 µM ([1]; Dose 0.001 µM, read-out: C. elegans mitochondrial complex I activity) of 88.8%. It also gave an activity at 0.0025 µM ([1]; Dose 0.0025 µM, read-out: C. elegans mitochondrial complex I activity) of 93.8%, an activity at 0.005 µM ([1]; Dose 0.005 µM, read-out: C. elegans mitochondrial complex I activity) of 86.7% and an activity at 0.013 µM ([1]; Dose 0.013 µM, read-out: C. elegans mitochondrial complex I activity) of 87.2%. It also gave an activity at 0.025 µM ([1]; Dose 0.025 µM, read-out: C. elegans mitochondrial complex I activity) of 83.3%, an activity at 0.063 µM ([1]; Dose 0.063 µM, read-out: C. elegans mitochondrial complex I activity) of 78.1% and an activity at 0.125 µM ([1]; Dose 0.125 µM, read-out: C. elegans mitochondrial complex I activity) of 80.5%. For the same compound, the activity at 0.313 µM ([1]; Dose 0.313 µM, read-out: C. elegans mitochondrial complex I activity) was 78%, the activity at 0.625 µM ([1]; Dose 0.625 µM, read-out: C. elegans mitochondrial complex I activity) was 89.4% and the activity at 1.5 µM ([1]; Dose 1.5 µM, read-out: C. elegans mitochondrial complex I activity) was 71.3%. The activity at 3 µM ([1]; Dose 3 µM, read-out: C. elegans mitochondrial complex I activity) was 60.5%, the activity at 15 µM ([1]; Dose 15 µM, read-out: C. elegans mitochondrial complex I activity) was 24.9% and the activity at 37.5 µM ([1]; Dose 37.5 µM, read-out: C. elegans mitochondrial complex I activity) was 11.1%. For the same compound, the activity at 75 µM ([1]; Dose 75 µM, read-out: C. elegans mitochondrial complex I activity) was 5.83%, the IC50 ([1]; in vitro complex I dose response on C. elegans mitochondria, average of at least two biological replicates, fit in R (DRC), read-out: IC50 C. elegans complex I) was 5.79 µM and the “Log IC50 C. elegans complex I” value ([1]; log10 of IC50 in µM, C. elegans mitochondria) was 0.76 µM. It also gave an IC50 ([1]; wild-type C. elegans mitochondria, read-out: C. elegans Complex I IC50) of 5.79 µM, a CC50 at 2 days ([2]; HEK293 Cell Viability Assay LC50, HEK293 cells, estimated from fitted dose-response curves) of over 100 µM and a viability at 2 days, 3.13 µM ([2]; HEK293 cells (Flp-In-293), HEK293 viability, Dose 3.13 µM) of 100%. For the same compound, the viability at 2 days, 6.25 µM ([2]; HEK293 cells (Flp-In-293), HEK293 viability, Dose 6.25 µM) was 98.3%, the viability at 2 days, 12.5 µM ([2]; HEK293 cells (Flp-In-293), HEK293 viability, Dose 12.5 µM) was 99.1% and the viability at 2 days, 25 µM ([2]; HEK293 cells (Flp-In-293), HEK293 viability, Dose 25 µM) was 100%. For the same compound, the viability at 2 days, 50 µM ([2]; HEK293 cells (Flp-In-293), HEK293 viability, Dose 50 µM) was 100%, the viability at 2 days, 100 µM ([2]; HEK293 cells (Flp-In-293), HEK293 viability, Dose 100 µM) was 100% and the “Screen "Hit"” value ([3]; 50 μM, […], hit = relative motility below 0.25 3 hours after removal of KCN) was “Y (hits were identified as compounds that reduced relative motility below 0.25 (75% reduction))”. For the same compound, the “C. elegans KCN Survival” value ([3]; Dose 0.2 µM, mean of at least three biological replicates) was 0.995, the “C. elegans KCN Survival” value ([3]; Dose 0.39 µM) was 1.044 and the “C. elegans KCN Survival” value ([3]; Dose 1.56 µM) was 1.038. For the same compound, the “C. elegans KCN Survival” value ([3]; Dose 3.13 µM) was 1.021, the “C. elegans KCN Survival” value ([3]; Dose 6.25 µM) was 1.008 and the “C. elegans KCN Survival” value ([3]; Dose 12.5 µM) was 0.918. The “C. elegans KCN Survival” value ([3]; Dose 25 µM) was 0.699, the “C. elegans KCN Survival” value ([3]; Dose 50 µM) was 0.269 and the “C. elegans KCN Survival” value ([3]; Dose 100 µM) was 0.187.
